Measurements: patent publication US5444052A, “Amphotericin B composition with enhanced fungal activity” (Temple University of the Commonwealth System of Higher …, priority 1993, dated 1995)
Like-named read-outs stand apart in the source and are kept apart here.

Key:
[1] = system: C. neoformans; test: Checkerboard minimum inhibitory concentration and synergy test (microtiter plate and agar plate analysis) on C. neoformans; type: cell-based, Cryptococcus neoformans; conditions: for Fold MIC decrease: added compound with other compound at 1/2 MIC vs alone; for 1/2 MIC: half of MIC, concentration used in the combination; for MIC: Cryptococcus neoformans; for MIC / synergistic effect of DDG isomers on antifungal effect of amphotericin B: 24 h; for synergistic effect of DDG isomers on antifungal effect of amphotericin B: 37° C. (FIG. 11)
[2] = system: C. albicans; test: Checkerboard minimum inhibitory concentration and synergy test (microtiter plate and agar plate analysis) on Candida albicans; type: cell-based; conditions: for Fold MIC decrease: added compound with other compound at 1/2 MIC vs alone; for 1/2 MIC: half of MIC, concentration used in the combination; for MIC: Candida albicans, 24 h
[3] = system: mice; conditions: cited from earlier work
[4] = system: laboratory animals; conditions: fed in very high doses; cited from earlier work
[5] = cited from earlier work
[6] = system: phagocytes; conditions: cited from earlier work
[7] = system: neurons; conditions: cited from earlier work
[8] = system: human cells; conditions: cited from earlier work
[9] = intravenous, 1 mg/kg, cited from earlier work
[10] = system: bacteria, rickettsiae, and viruses; conditions: cited from earlier work
[11] = system: erythrocytes; conditions: by binding to cholesterol in the cell membrane, causing anemia; cited from earlier work
[12] = 25° C., agar plate, compound alone, read-out: MIC
[13] = 25° C., microtiter plate, compound alone, read-out: MIC
[14] = 37° C., agar plate, compound alone, read-out: MIC
[15] = 37° C., microtiter plate, compound alone, read-out: MIC
[16] = 25° C., agar plate, compound alone
[17] = 25° C., microtiter plate, compound alone
[18] = 37° C., agar plate, compound alone
[19] = 37° C., microtiter plate, compound alone

CCCCCCCCCCCCOCC(O)CO (racemic) [rac-1-DDG, rac-1-O-dodecylglycerol]
Fold MIC decrease ([1]; 25° C., agar plate): 80 | 1/2 MIC ([1]; 25° C., agar plate): 5 µg/mL | Fold MIC decrease ([1]; 25° C., microtiter plate): 120 | 1/2 MIC ([1]; 25° C., microtiter plate): 7.5 µg/mL | Fold MIC decrease ([1]; 37° C., agar plate): 160 | 1/2 MIC ([1]; 37° C., agar plate): 10 µg/mL | Fold MIC decrease ([1]; 37° C., microtiter plate): 50 | 1/2 MIC ([1]; 37° C., microtiter plate): 7.5 µg/mL | MIC [1, 12]: 10 µg/mL | MIC [1, 13]: 15 µg/mL | MIC ([1]; 25° C., microtiter plate, in presence of the other compound at 1/2 MIC (rac-1-DDG 7.5 or Amph. B 1.13 μg/ml), read-out: Resulting MIC of added compound): 0.125 µg/mL | MIC ([1]; 25° C., agar plate, in presence of the other compound at 1/2 MIC (rac-1-DDG 5 or Amph. B 1.13 μg/ml), read-out: Resulting MIC of added compound): 0.125 µg/mL | MIC [1, 14]: 20 µg/mL | MIC [1, 15]: 15 µg/mL | MIC ([1]; 37° C., agar plate, in presence of the other compound at 1/2 MIC (rac-1-DDG 10 or Amph. B 1.25 μg/ml), read-out: Resulting MIC of added compound): 0.125 µg/mL | MIC ([1]; 37° C., microtiter plate, in presence of the other compound at 1/2 MIC (rac-1-DDG 7.5 or Amph. B 0.75 μg/ml), read-out: Resulting MIC of added compound): 0.3 µg/mL | Fold MIC decrease ([2]; 25° C., agar plate): 80 | 1/2 MIC ([2]; 25° C., agar plate): 10 µg/mL | Fold MIC decrease ([2]; 25° C., microtiter plate): 36 | 1/2 MIC ([2]; 25° C., microtiter plate): 5 µg/mL | Fold MIC decrease ([2]; 37° C., agar plate): 40 | 1/2 MIC ([2]; 37° C., agar plate): 7.5 µg/mL | Fold MIC decrease ([2]; 37° C., microtiter plate): 40 | 1/2 MIC ([2]; 37° C., microtiter plate): 7.5 µg/mL | MIC [2, 12]: 20 µg/mL | MIC [2, 13]: 10 µg/mL | MIC ([2]; 25° C., agar plate, in presence of the other compound at 1/2 MIC (rac-1-DDG 10 or Amph. B 1.13 μg/ml), read-out: Resulting MIC of added compound): 0.25 µg/mL | MIC ([2]; 25° C., microtiter plate, in presence of the other compound at 1/2 MIC (rac-1-DDG 5 or Amph. B 1 μg/ml), read-out: Resulting MIC of added compound): 0.281 µg/mL | MIC [2, 14]: 15 µg/mL | MIC [2, 15]: 15 µg/mL | MIC ([2]; 37° C., agar plate, in presence of the other compound at 1/2 MIC (rac-1-DDG 7.5 or Amph. B 1 μg/ml), read-out: Resulting MIC of added compound): 0.375 µg/mL | MIC ([2]; 37° C., microtiter plate, in presence of the other compound at 1/2 MIC (rac-1-DDG 7.5 or Amph. B 0.5 μg/ml), read-out: Resulting MIC of added compound): 0.375 µg/mL | organ weights or body weights ([3]; 1 g/kg/day in feed, 4 weeks): did not significantly alter the organ weights or body weights of mice | linoleolyl moieties of total lipids ([3]; during feeding, 1 g/kg/day): concomitant decrease | saturated acyl moieties of total lipids ([3]; during feeding, 1 g/kg/day): marked increase | lipids of organs and tissues ([3]; four weeks after removal of compound from diet): close resemblance to those of a control group | toxicity [4]: does not appear to be toxic | solubility in water [5]: relatively good solubility in water | stimulation of phagocytes to ingest foreign substances [6]: stimulated | neuronal growth [7]: promote neuronal growth

CCCCCCCCCCCCOC(CO)CO [2-DDG, 2-O-dodecylglycerol]
synergistic effect of DDG isomers on antifungal effect of amphotericin B [1]: synergistic effect

Nc1nc(=O)[nH]cc1F [Fluorocytosine]
toxicity to human cells [8]: toxic to human cells

CCCCCCCCCCCCOC[C@H](O)CO [Sn-3-DDG, sn-3-O-dodecylglycerol]
synergistic effect of DDG isomers on antifungal effect of amphotericin B [1]: synergistic effect

C[C@@H]1[C@H](O)[C@@H](C)/C=C/C=C/C=C/C=C/C=C/C=C/C=C/[C@H](O[C@@H]2O[C@H](C)[C@@H](O)[C@H](N)[C@@H]2O)C[C@@H]2O[C@](O)(C[C@@H](O)C[C@@H](O)[C@H](O)CC[C@@H](O)C[C@@H](O)CC(=O)O[C@H]1C)C[C@H](O)[C@H]2C(=O)O [amphotericin B, [1R-(1R*,3S*, 5R*,6R*,9R*, 11R*,15S*,16R*,17R*,18S*,19E,21E,23E,25E,27E,29E,31E,33R*, 35S*,36R*,37S,)]-33-[(3-amino-3,6-dideoxy-β-D-mannopyranosyl)oxy]1,3,5,6,9,11,17,37-octahydroxy-15,16,18-trimethyl-13-oxo-14,39-dioxabicyclo-[33.3.1]nonatriaconta-19,21,23,25,27,29,31-heptaene-36-carboxylic acid]
Fold MIC decrease ([1]; 25° C., agar plate): 72 | 1/2 MIC ([1]; 25° C., agar plate): 1.13 µg/mL | Fold MIC decrease ([1]; 25° C., microtiter plate): 48 | 1/2 MIC ([1]; 25° C., microtiter plate): 1.12 µg/mL | 1/2 MIC ([1]; 25° C., microtiter plate, listed as Amph. B): 1.13 µg/mL | Fold MIC decrease ([1]; 37° C., agar plate): 80 | 1/2 MIC ([1]; 37° C., agar plate): 1.25 µg/mL | Fold MIC decrease ([1]; 37° C., microtiter plate): 12.7 | 1/2 MIC ([1]; 37° C., microtiter plate): 0.75 µg/mL | MIC [1, 16]: 2.25 µg/mL | MIC [1, 17]: 2.25 µg/mL | MIC [1, 18]: 2.5 µg/mL | MIC [1, 19]: 1.5 µg/mL | MIC ([1]; read-out: Resulting MIC of added compound, 25° C., 24 h, microtiter plate, in presence of the other compound at 1/2 MIC (rac-1-DDG 7.5 or Amph. B 1.13 μg/ml)): 0.047 µg/mL | MIC ([1]; read-out: Resulting MIC of added compound, 25° C., agar plate, in presence of the other compound at 1/2 MIC (rac-1-DDG 5 or Amph. B 1.13 μg/ml)): 0.0313 µg/mL | MIC ([1]; read-out: Resulting MIC of added compound, 37° C., agar plate, in presence of the other compound at 1/2 MIC (rac-1-DDG 10 or Amph. B 1.25 μg/ml)): 0.0313 µg/mL | MIC ([1]; read-out: Resulting MIC of added compound, 37° C., microtiter plate, in presence of the other compound at 1/2 MIC (rac-1-DDG 7.5 or Amph. B 0.75 μg/ml)): 0.118 µg/mL | Fold MIC decrease ([2]; 25° C., agar plate): 72 | 1/2 MIC ([2]; 25° C., agar plate): 1.13 µg/mL | Fold MIC decrease ([2]; 25° C., microtiter plate): 64 | 1/2 MIC ([2]; 25° C., microtiter plate): 1 µg/mL | Fold MIC decrease ([2]; 37° C., agar plate): 10.6 | 1/2 MIC ([2]; 37° C., agar plate): 1 µg/mL | Fold MIC decrease ([2]; 37° C., microtiter plate): 5.3 | 1/2 MIC ([2]; 37° C., microtiter plate): 0.5 µg/mL | MIC [2, 16]: 2.25 µg/mL | MIC [2, 17]: 2 µg/mL | MIC [2, 18]: 2 µg/mL | MIC [2, 19]: 1 µg/mL | MIC ([2]; read-out: Resulting MIC of added compound, 25° C., agar plate, in presence of the other compound at 1/2 MIC (rac-1-DDG 10 or Amph. B 1.13 μg/ml)): 0.0313 µg/mL | MIC ([2]; read-out: Resulting MIC of added compound, 25° C., microtiter plate, in presence of the other compound at 1/2 MIC (rac-1-DDG 5 or Amph. B 1 μg/ml)): 0.0313 µg/mL | MIC ([2]; read-out: Resulting MIC of added compound, 37° C., agar plate, in presence of the other compound at 1/2 MIC (rac-1-DDG 7.5 or Amph. B 1 μg/ml)): 0.188 µg/mL | MIC ([2]; read-out: Resulting MIC of added compound, 37° C., microtiter plate, in presence of the other compound at 1/2 MIC (rac-1-DDG 7.5 or Amph. B 0.5 μg/ml)): 0.188 µg/mL | peak serum concentrations ([9]; by end of infusion): 2-3 micrograms/ml | serum concentration ([9]; for up to 24 hours after infusion): above 0.5 micrograms/ml | solubility in water ([5]; crystalline): insoluble in water | effect on bacteria, rickettsiae, and viruses [10]: no effect | damage to erythrocytes [11]: damages erythrocytes

CCCCCCCCCCCCOC[C@@H](O)CO [sn-1-DDG, sn-1-O-dodecylglycerol]
synergistic effect of DDG isomers on antifungal effect of amphotericin B [1]: synergistic effect
